Measured values published in patent publication US5648365A, “Diarylalkyl piperidines useful as multi-drug resistant tumor agents” (Merrell Pharmaceuticals Inc., priority 1996, dated 1997).

Experiments:
[1] = test system: MDR tumor cells; experiment: MDR activity: synergy with vinblastine, colorimetric MTT assay; format: cell-based; details: for EC50: concentration required to lower the IC50 of vinblastine by 50% when both added together, 72 hr, MTT, read-out: MDR Activity ED50; for Activity Index: ratio of toxicity (IC50) and MDR activity (ED50), 4320 min
Experimental: (§1) A colorimetric assay is employed to determine the synergy between test compounds of the invention and vinblastine or adriamycin against the growth of MDR tumor cells. The assay is based on the ability of live tumor cells to reduce a tetrazoline compound, MTT (3-(4,5-dimethyl)[…])-2,5-diphenyl tetrazolium bromide, to a blue formazan product. Both the test compound and cytotoxic drug (vinblastine or adriamycin) were added to the cells growing in wells of a 96-well plate at different combinations of concentration. The cells were allowed to grow for 72 hr and, at the end of incubation, stained with MTT for 3 hr. The blue formazan product which developed, was dissolved with DMSO and the color intensity was recorded in a spectrophotometer. Based on the data, an isobologram analysis was performed. MDR activity (ED50 : μM) represents the concentration of the compound required to lower the IC50 value of vinblastine by 50% when both the compounds were added to the medium together. Cellular toxicity (IC50 : μM) represents concentration of the compound that inhibit cell growth by 50%. Activity index is the ratio of toxicity and MDR activity.

[2] = test system: MDR tumor cells; experiment: Cellular toxicity: inhibition of cell growth, colorimetric MTT assay; format: cell-based; details: concentration that inhibits cell growth by 50%, 72 hr
Experimental: as §1

Row | SMILES | EC50 [1] | Activity Index [1] | IC50 [2]
1 | COc1ccccc1CC(=O)N1CCCCC1CC(c1ccccc1)c1ccccc1 (stereo not drawn) [Example 2, 1-[2-(2,2-Diphenyl-Ethyl)-Piperidin-1-yl]-2(2-Methoxy-Phenyl)-Ethanone] | 1.16 µM | 32.0 | 37.5 µM
2 | O=C(Cc1ccc2c(c1)OCO2)N1CCCCC1CC(c1ccccc1)c1ccccc1 (stereo not drawn) [Example 3, 2-Benzo[1,3]Dioxol-5-yl-1-[2-(2,2-Diphenylethyl)-Piperidin-1-yl]-Ethanone] | 1.2 µM | 32.5 | 39 µM
3 | COc1cc(CC(=O)N2CCCCC2C(c2ccccc2)c2ccccc2)cc(OC)c1OC (stereo not drawn) [Example 9] | 0.7 µM | 43.5 | 30.3 µM

Now those with a lower EC50 [1], led by results:

Row | EC50 [1] | SMILES | Activity Index [1] | IC50 [2]
4 | 0.46 µM | COc1ccc(CCC(=O)N2CCCCC2CC(c2ccccc2)c2ccccc2)cc1OC (stereo not drawn) [Example 6, 3-(3,4-Dimethoxy-Phenyl)-1-[2-(2,2-Diphenylethyl)-Piperidin-1-yl]-Propan-1-one] | 47.0 | 21.6 µM
5 | 0.31 µM | COc1cc(CC(=O)N2CCCCC2CC(c2ccccc2)c2ccccc2)cc(OC)c1OC (stereo not drawn) [Example 1, 1-[2-(2,2-Diphenyl-Ethyl)-Piperidin-1-yl]-2-(3,4,5-Trimethoxy-Phenyl)-Ethanone] | 109.0 | 33.8 µM
